What was measured:
[1] = biological target: T1, Retinoic acid receptor alpha (Homo sapiens, UniProt P10276); assay: (§1) Compound was tested for binding affinity against retinoic acid receptor using 5 nM of [3H]RA as a radioligand in baculovirus expressed receptor
T1 sequence (P10276 whole entry): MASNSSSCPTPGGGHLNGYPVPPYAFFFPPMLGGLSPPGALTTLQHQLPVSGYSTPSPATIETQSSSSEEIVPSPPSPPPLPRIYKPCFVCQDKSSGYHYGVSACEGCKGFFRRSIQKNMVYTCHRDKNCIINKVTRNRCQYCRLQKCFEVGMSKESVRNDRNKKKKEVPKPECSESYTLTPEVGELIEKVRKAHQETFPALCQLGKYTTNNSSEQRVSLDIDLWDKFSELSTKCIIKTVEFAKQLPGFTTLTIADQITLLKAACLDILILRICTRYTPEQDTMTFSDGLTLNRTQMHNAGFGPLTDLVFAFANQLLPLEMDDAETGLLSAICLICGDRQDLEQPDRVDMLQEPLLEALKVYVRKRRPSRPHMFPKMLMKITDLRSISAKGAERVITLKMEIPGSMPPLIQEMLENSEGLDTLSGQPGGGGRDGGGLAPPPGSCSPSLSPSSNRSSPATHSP

[2] = biological target: T2, Retinoic acid receptor gamma (Homo sapiens, UniProt P13631); assay: as §1
T2 sequence (P13631 whole entry): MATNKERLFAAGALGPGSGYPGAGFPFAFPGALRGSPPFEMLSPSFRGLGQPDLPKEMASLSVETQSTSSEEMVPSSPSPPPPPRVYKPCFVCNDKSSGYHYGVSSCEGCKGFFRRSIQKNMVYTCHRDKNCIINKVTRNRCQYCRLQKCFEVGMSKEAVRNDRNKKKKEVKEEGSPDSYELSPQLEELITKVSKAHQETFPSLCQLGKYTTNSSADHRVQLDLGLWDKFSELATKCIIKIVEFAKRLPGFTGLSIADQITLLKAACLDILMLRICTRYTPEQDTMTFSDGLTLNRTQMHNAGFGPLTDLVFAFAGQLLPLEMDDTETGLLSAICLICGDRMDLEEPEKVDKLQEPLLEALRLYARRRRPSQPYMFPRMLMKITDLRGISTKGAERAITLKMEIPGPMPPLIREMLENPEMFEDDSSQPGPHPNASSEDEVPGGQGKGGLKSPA

[3] = biological target: T3, Retinoic acid receptor beta (Homo sapiens, UniProt P10826); assay: as §1
T3 sequence (P10826 whole entry): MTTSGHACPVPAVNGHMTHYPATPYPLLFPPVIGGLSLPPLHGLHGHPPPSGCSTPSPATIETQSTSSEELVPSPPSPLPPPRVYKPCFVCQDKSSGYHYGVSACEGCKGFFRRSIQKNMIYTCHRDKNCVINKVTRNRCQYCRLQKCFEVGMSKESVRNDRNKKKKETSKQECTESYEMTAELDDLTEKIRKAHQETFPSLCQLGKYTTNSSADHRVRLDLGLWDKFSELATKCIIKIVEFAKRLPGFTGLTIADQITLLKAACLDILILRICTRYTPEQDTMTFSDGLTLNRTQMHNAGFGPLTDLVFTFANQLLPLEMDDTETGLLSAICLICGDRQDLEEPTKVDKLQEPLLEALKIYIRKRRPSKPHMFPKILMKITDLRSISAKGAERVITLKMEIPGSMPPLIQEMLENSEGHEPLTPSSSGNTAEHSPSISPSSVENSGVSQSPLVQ

[4] = biological target: T4, Retinoic acid receptor RXR-alpha (Homo sapiens, UniProt P19793); assay: Compound was tested for functional activity in CV-1 cells transfected with an expression vector for retinoid X receptor alpha using transactivation assay; type: cell-based
T4 sequence (P19793 whole entry): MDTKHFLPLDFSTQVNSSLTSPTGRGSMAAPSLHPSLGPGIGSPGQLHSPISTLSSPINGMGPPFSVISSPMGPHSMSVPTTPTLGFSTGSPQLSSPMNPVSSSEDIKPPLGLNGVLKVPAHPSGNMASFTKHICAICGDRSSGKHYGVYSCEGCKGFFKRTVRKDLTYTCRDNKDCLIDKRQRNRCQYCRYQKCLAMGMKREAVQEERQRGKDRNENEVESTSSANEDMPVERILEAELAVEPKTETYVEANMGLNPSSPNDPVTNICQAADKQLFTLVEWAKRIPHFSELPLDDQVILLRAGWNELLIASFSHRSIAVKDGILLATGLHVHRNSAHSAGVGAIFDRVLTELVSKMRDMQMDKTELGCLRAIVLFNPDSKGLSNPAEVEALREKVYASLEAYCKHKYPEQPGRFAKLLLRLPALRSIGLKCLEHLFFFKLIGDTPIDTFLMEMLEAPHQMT

[5] = biological target: T5, Retinoic acid receptor RXR-gamma (Homo sapiens, UniProt P48443); assay: (§2) Compound was tested for binding affinity against retinoid X receptor using 5 nM of [3H]9-cis-RA as a radioligand in baculovirus expressed receptor
T5 sequence (P48443 whole entry): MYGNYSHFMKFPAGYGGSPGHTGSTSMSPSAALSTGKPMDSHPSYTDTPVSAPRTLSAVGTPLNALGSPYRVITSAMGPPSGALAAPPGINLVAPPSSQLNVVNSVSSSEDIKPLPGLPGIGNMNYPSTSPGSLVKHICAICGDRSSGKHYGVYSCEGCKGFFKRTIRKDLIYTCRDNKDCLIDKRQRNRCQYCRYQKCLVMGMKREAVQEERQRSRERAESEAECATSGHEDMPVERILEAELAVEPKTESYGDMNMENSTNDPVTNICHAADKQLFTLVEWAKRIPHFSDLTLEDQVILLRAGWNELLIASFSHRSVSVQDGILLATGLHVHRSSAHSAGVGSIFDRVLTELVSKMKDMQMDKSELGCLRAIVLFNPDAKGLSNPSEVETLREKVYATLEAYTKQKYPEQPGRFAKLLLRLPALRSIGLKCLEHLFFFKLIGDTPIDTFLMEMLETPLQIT

[6] = biological target: T6, Retinoic acid receptor RXR-beta (Homo sapiens, UniProt P28702); assay: as §2
T6 sequence (P28702 whole entry): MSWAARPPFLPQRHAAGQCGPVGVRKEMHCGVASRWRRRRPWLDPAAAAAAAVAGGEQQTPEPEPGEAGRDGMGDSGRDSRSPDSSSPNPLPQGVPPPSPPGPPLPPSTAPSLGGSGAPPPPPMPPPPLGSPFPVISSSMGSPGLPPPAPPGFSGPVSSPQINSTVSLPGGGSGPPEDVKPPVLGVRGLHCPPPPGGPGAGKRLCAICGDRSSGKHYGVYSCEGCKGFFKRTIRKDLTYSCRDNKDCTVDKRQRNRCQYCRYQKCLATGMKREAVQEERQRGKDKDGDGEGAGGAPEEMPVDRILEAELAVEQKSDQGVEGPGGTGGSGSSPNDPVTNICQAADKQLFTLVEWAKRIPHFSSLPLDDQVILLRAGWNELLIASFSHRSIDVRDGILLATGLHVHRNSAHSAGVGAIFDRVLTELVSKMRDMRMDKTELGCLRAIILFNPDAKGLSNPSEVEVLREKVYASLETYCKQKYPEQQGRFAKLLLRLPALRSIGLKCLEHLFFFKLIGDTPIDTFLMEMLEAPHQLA

[7] = biological target: T6, Retinoic acid receptor RXR-beta; assay: Compound was tested for functional activity in CV-1 cells transfected with an expression vector for retinoid X receptor beta using transactivation assay; type: cell-based
[8] = biological target: T1, Retinoic acid receptor alpha; assay: Compound was tested for functional activity in CV-1 cells transfected with an expression vector for retinoic acid receptor alpha using transactivation assay; type: cell-based
[9] = biological target: T3, Retinoic acid receptor beta; assay: Compound was tested for functional activity in CV-1 cells transfected with an expression vector for retinoic acid receptor beta using transactivation assay; type: cell-based
[10] = biological target: T5, Retinoic acid receptor RXR-gamma; assay: Compound was tested for functional activity in CV-1 cells transfected with an expression vector for retinoid X receptor gamma using transactivation assay; type: cell-based
[11] = biological target: T2, Retinoic acid receptor gamma; assay: Compound was tested for functional activity in CV-1 cells transfected with an expression vector for retinoic acid receptor gamma using transactivation assay; type: cell-based
[12] = biological target: T4, Retinoic acid receptor RXR-alpha; assay: Compound was tested for binding affinity against retinoid X receptor using 5 nM of [3H]-9-cis-RA as a radioligand in baculovirus expressed receptor

Row | Kd [1] | Kd [2] | Kd [3] | EC50 [4] | Kd [5] | Kd [6] | EC50 [7] | EC50 [8] | EC50 [9] | EC50 [10] | EC50 [11] | Kd [12] | SMILES
1 | > 1000 nM | > 1000 nM | > 1000 nM | > 1000 nM | > 1000 nM | > 1000 nM | > 1000 nM | > 1000 nM | > 1000 nM | > 1000 nM | > 1000 nM | > 1000 nM | CC(=CC(=O)O)/C=C/C1CC1(C)c1cc2c(cc1C)C(C)(C)CCC2(C)C (centres undefined)
2 | > 1000 nM | > 1000 nM | > 1000 nM | 130 nM | 42 nM | 56 nM | 100 nM | > 1000 nM | > 1000 nM | 71 nM | > 1000 nM | 71 nM | CC(/C=C/C1CC1(C)c1cc2c(cc1C)C(C)(C)CCC2(C)C)=C\C(=O)O (centres undefined)

— ChEMBL document CHEMBL1129189 (Bioorg Med Chem Lett, 1996)
